Test [1] deals with Dual specificity tyrosine-phosphorylation-regulated kinase 1A (Homo sapiens) (UniProt Q13627). The test is described as follows: Inhibition of DYRK1A (unknown origin) assessed as remaining activity at 1 uM by Kinome scan method relative to control.
In test [2] the target is Serine/threonine-protein kinase PAK 5 (Homo sapiens) (UniProt Q9P286). The test is described as follows: Inhibition of PAK7 (unknown origin) assessed as remaining activity at 1 uM by Kinome scan method relative to control.
The target of test [3] is Dual specificity mitogen-activated protein kinase kinase 6 (Homo sapiens) (UniProt P52564). In words: Inhibition of MEK6 (unknown origin) assessed as remaining activity at 1 uM by Kinome scan method relative to control.
Chain of Dual specificity mitogen-activated protein kinase kinase 6 (Homo sapiens) (P52564 whole entry): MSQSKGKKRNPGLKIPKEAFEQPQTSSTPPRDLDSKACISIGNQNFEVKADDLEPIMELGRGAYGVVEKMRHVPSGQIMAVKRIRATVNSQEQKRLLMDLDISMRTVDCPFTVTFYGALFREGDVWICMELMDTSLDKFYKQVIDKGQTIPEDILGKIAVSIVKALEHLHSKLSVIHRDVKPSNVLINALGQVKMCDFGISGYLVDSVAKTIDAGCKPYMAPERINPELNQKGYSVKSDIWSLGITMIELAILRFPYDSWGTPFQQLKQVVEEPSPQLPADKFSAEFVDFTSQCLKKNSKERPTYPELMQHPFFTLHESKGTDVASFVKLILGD
Test [4] has as its target Serine/threonine-protein kinase 32C (Homo sapiens) (UniProt Q86UX6). In words: Inhibition of YANK3 (unknown origin) assessed as remaining activity at 1 uM by Kinome scan method relative to control.
Test [5] has as its target T1, Ephrin type-A receptor 3 (Homo sapiens) (UniProt P29320).
T1 sequence (whole entry): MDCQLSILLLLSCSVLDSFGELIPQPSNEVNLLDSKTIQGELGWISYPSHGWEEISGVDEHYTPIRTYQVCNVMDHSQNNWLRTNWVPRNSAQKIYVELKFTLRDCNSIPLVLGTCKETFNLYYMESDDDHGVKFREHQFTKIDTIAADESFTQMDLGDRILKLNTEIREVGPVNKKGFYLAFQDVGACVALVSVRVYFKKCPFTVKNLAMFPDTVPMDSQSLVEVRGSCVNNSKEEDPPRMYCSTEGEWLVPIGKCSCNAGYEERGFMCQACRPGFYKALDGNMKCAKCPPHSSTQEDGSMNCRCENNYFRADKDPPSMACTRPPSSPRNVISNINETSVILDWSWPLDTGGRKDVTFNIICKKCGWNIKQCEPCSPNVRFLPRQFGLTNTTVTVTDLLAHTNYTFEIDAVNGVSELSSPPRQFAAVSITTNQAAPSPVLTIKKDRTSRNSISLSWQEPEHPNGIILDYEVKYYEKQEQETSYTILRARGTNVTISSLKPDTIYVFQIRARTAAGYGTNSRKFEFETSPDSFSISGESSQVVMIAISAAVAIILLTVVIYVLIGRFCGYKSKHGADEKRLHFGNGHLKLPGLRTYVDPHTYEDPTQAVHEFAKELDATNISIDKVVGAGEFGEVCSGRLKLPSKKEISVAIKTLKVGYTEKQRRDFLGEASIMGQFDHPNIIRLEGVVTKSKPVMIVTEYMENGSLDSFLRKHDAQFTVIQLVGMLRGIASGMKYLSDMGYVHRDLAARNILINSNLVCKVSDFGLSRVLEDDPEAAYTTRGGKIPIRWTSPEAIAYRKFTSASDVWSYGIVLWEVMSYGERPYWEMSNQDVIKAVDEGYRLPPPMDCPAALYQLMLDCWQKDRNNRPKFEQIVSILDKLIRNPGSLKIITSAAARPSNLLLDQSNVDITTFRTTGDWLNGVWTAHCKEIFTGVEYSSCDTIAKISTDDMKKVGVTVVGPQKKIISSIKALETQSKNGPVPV
In words: Inhibition of EPHA3 (unknown origin) assessed as remaining activity at 1 uM by Kinome scan method relative to control.

The target of test [6] is Tyrosine-protein kinase HCK (Homo sapiens) (UniProt P08631). In words: Inhibition of HCK (unknown origin) assessed as remaining activity at 1 uM by Kinome scan method relative to control.
For test [7], the target named is LIM domain kinase 1 (Homo sapiens) (UniProt P53667). In words: Inhibition of LIMK1 (unknown origin) assessed as remaining activity at 1 uM by Kinome scan method relative to control.
Chain of LIM domain kinase 1 (Homo sapiens) (P53667 whole entry, looked up, the tested form may be a part): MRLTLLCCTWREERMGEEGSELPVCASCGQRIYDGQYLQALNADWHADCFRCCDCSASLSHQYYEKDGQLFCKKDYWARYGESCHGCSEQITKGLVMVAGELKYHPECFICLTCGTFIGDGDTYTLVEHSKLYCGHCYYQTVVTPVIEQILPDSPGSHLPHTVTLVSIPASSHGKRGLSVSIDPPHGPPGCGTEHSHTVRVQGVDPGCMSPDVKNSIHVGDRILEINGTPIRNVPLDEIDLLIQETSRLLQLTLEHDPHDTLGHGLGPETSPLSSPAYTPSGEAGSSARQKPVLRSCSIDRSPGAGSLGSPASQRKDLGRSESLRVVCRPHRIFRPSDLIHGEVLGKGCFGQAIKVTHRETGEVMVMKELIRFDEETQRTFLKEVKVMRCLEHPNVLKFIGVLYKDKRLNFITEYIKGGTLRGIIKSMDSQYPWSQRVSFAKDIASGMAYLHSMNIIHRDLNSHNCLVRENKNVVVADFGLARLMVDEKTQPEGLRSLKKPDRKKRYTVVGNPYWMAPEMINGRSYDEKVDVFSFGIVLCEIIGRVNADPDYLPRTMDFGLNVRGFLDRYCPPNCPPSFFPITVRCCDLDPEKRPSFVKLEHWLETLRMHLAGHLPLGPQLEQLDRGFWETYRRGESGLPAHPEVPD
Test [8] has as its target Fibroblast growth factor receptor 3 (Homo sapiens) (UniProt P22607). In words: Inhibition of FGFR3 (unknown origin) assessed as remaining activity at 1 uM by Kinome scan method relative to control.
In test [9] the target is Dual specificity mitogen-activated protein kinase kinase 2 (Homo sapiens) (UniProt P36507). In words: Inhibition of MEK2 (unknown origin) assessed as remaining activity at 1 uM by Kinome scan method relative to control.
Chain of Dual specificity mitogen-activated protein kinase kinase 2 (Homo sapiens) (P36507 whole entry): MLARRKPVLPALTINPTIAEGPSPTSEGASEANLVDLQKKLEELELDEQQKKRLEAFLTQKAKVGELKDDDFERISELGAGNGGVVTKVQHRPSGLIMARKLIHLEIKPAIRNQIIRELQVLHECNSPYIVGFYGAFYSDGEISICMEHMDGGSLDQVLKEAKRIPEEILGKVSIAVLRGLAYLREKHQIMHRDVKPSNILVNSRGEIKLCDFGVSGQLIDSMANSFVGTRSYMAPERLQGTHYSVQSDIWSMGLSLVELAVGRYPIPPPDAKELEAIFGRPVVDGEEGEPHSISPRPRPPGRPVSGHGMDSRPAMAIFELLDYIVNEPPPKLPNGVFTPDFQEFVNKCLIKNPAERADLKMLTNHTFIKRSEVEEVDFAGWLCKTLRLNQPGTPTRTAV
Test [10] concerns the target Dual specificity tyrosine-phosphorylation-regulated kinase 2 (Homo sapiens) (UniProt Q92630). In words: Inhibition of DYRK2 (unknown origin) assessed as remaining activity at 1 uM by Kinome scan method relative to control.
For test [11], the target named is Interleukin-1 receptor-associated kinase 1 (Homo sapiens) (UniProt P51617). The test is described as follows: Inhibition of IRAK1 (unknown origin) assessed as remaining activity at 1 uM by Kinome scan method relative to control.
For test [12], the target named is T2, Mitogen-activated protein kinase 12 (Homo sapiens) (UniProt P53778).
T2 sequence (whole entry): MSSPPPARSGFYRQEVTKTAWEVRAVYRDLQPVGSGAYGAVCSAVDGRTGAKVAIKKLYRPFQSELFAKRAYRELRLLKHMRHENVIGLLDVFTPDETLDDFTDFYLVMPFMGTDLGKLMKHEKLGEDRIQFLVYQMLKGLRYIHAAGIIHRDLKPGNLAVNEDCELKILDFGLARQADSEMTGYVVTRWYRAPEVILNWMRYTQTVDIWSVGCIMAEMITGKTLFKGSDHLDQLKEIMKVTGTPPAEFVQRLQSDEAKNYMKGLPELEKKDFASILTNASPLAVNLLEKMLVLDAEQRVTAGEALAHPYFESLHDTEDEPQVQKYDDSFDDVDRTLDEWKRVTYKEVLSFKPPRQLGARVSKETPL
The test is described as follows: Inhibition of P38gamma (unknown origin) assessed as remaining activity at 1 uM by Kinome scan method relative to control.

Test [13] relates to Tyrosine-protein kinase ABL1 (Homo sapiens), P00519 [F317I]. The test is described as follows: Inhibition of ABL1 F317I mutant (unknown origin) assessed as remaining activity at 1 uM by Kinome scan method relative to control.
Chain of Tyrosine-protein kinase ABL1 (Homo sapiens), P00519 [F317I] (P00519 whole entry F317I): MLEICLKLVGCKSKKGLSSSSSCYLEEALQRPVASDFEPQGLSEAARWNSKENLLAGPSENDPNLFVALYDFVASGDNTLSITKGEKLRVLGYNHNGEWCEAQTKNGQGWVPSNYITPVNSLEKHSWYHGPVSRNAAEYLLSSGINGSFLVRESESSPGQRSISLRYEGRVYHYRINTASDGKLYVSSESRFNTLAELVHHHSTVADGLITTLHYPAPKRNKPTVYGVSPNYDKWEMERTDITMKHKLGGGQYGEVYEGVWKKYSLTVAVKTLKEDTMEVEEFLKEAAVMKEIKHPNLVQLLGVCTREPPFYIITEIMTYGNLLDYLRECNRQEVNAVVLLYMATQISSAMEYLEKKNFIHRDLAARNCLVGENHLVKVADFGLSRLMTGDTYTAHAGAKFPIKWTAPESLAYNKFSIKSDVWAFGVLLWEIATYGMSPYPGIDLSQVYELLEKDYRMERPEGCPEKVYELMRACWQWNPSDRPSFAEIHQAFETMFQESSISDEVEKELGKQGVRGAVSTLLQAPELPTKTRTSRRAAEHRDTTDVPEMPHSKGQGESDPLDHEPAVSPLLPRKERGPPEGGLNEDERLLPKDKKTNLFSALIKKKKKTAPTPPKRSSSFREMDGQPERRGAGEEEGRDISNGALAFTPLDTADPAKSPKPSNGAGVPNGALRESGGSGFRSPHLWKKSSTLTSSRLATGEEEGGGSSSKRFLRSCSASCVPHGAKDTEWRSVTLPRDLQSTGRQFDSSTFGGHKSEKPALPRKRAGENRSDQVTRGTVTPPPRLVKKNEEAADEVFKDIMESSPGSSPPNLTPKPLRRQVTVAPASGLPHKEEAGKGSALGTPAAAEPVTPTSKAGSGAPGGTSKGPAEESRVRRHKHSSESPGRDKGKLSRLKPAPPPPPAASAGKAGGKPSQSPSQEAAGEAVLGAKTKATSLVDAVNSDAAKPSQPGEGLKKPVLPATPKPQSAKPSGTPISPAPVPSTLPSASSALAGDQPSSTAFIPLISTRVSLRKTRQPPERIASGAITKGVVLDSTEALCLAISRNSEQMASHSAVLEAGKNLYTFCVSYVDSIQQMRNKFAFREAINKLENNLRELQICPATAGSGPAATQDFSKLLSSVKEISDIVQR
Test [14] deals with Cyclin-G-associated kinase (Homo sapiens) (UniProt O14976). The test is described as follows: Inhibition of GAK (unknown origin) assessed as remaining activity at 1 uM by Kinome scan method relative to control.
In test [15] the target is Misshapen-like kinase 1 (Homo sapiens) (UniProt Q8N4C8). The test is described as follows: Inhibition of MINK (unknown origin) assessed as remaining activity at 1 uM by Kinome scan method relative to control.
Chain of Misshapen-like kinase 1 (Homo sapiens) (Q8N4C8 whole entry, looked up): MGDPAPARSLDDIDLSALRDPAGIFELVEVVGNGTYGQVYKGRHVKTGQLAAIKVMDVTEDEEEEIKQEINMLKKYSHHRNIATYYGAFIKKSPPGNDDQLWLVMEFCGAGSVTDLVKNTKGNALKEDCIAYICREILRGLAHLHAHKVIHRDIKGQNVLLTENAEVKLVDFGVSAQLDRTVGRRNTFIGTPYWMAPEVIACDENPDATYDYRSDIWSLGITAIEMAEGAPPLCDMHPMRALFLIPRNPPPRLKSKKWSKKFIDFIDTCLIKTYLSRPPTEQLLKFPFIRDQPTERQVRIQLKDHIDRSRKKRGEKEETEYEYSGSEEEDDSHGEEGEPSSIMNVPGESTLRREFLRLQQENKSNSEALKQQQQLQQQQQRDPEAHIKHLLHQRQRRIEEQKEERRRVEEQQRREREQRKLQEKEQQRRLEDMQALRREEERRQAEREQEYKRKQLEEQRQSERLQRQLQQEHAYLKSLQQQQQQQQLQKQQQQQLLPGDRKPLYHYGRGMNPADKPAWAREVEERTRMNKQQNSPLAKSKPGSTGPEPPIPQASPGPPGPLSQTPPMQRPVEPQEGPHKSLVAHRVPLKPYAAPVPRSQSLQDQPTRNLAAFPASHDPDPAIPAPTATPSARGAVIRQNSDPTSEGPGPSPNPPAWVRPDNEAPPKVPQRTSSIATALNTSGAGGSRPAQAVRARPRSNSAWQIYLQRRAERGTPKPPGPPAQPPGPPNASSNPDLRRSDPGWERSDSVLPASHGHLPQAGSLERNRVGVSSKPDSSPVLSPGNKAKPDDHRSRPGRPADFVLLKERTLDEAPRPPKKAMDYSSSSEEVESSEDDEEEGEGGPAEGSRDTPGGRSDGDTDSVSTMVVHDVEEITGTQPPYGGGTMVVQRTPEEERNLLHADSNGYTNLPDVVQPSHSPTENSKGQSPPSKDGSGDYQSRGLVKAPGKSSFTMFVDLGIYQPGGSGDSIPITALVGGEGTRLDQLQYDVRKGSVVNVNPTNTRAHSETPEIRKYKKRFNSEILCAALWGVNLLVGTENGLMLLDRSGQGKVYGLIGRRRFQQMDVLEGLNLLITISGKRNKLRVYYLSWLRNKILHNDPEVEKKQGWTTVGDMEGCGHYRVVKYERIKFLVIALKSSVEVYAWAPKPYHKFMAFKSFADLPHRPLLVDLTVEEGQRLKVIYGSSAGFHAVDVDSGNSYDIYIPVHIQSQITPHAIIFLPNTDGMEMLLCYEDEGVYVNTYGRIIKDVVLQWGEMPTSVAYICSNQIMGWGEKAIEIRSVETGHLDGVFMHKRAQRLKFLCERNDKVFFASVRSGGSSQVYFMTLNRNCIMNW

Chain of Dual specificity tyrosine-phosphorylation-regulated kinase 2 (Homo sapiens) (Q92630 whole entry): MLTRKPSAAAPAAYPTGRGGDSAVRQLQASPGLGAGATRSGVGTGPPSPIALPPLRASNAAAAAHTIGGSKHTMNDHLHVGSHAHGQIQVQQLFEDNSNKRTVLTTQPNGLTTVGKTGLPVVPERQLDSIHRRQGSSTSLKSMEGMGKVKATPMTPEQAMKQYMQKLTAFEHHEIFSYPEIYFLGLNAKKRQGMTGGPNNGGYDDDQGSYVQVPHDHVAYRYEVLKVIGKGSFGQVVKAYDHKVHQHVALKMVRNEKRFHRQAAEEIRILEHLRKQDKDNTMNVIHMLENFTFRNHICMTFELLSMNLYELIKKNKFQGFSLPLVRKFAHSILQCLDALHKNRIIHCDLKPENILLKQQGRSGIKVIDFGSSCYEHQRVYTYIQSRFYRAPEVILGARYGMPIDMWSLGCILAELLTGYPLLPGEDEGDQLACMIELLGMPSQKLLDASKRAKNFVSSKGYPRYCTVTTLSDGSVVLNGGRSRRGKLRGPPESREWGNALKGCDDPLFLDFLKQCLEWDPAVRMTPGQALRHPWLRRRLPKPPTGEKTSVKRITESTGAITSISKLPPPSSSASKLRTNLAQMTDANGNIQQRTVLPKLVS
Chain of Serine/threonine-protein kinase 32C (Homo sapiens) (Q86UX6 whole entry): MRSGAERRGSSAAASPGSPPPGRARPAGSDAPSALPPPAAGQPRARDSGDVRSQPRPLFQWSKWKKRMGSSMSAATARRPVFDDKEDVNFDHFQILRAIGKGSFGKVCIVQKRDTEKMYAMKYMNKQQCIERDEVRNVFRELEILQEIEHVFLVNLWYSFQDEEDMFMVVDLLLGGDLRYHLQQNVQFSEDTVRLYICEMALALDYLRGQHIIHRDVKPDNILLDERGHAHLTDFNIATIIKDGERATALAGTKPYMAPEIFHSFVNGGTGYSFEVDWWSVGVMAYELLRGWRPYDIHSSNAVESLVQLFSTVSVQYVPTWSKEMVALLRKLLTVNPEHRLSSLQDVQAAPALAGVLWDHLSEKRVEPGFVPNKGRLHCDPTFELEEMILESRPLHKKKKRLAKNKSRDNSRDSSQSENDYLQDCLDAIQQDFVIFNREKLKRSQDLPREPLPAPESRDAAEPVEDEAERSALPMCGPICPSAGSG

In the case of `Nc1ccccc1Nc1ccc2c(c1)CCc1ccccc1C2=O`, the Activity in [1] came out at 92%; in test [2], 91%; in test [3], 76%; in [4], 96%; in test [5], 83%; in test [6], 93%. The Activity in test [7] was determined as 96%; in test [8] it was 77%; in test [9] it was 88%; in [10], 75%; in test [11], 75%; in test [12] it was 98%. Besides, the Activity in test [13] was 78%; in test [14], 93%; in [15], 81%.

On to `O=C1c2ccc(Nc3ccc(F)cc3F)cc2CCc2ccc(OC[C@H](O)CO)cc21` [Skepinone-L], for which the Activity worked out at 98% in [1]; 86% in test [2]; 82% in test [3]; 99% in test [4]; 94% in test [5]; 97% in [6]. Further, the Activity is 86% in [7]; 95% in test [8]; 90% in [9]; 86% in test [10]; 100% in [11]; 88% in test [12]. For the same compound, the Activity worked out at 92% in test [13], 53% in test [14] and 100% in [15].

Source of the values: ChEMBL document CHEMBL5696441 (Nat Chem Biol, 2011).
